Assay: xn = mol fraction of the nth substance listed
Conditions: 101 kPa

CN(C)C=O + CCCC[n+]1ccn(C)c1.F[B-](F)(F)F
x2 = 0
Conditions | viscosity [mPa·s]
293.15 K | 0.88
298.15 K | 0.83
303.15 K | 0.78
308.15 K | 0.74
313.15 K | 0.7
318.15 K | 0.67
323.15 K | 0.63

CCCC[n+]1ccn(C)c1.F[B-](F)(F)F + CN(C)C=O
viscosity [mPa·s]
Conditions | 293.15 K | 298.15 K | 303.15 K | 308.15 K | 313.15 K | 318.15 K | 323.15 K
x1 = 0.08 | – | 2.56 | 2.3 | 2.27 | 1.95 | – | –
x1 = 0.16 | 5.71 | 3.95 | 3.21 | 3.29 | – | 1.84 | 1.63
x1 = 0.24 | 9 | 5.82 | 4.17 | 3.9 | 2.61 | 1.59 | 1.88
x1 = 0.34 | 13.7 | 8.9 | 6.22 | 4.65 | 2.49 | 0.55 | 1.38
x1 = 0.43 | 18.4 | 12.1 | 8 | – | 2.98 | – | 0.75
x1 = 0.55 | 26.7 | 17.7 | 12.7 | 9.6 | 5.74 | – | 0.5
x1 = 0.65 | 38.3 | 27.6 | 20.7 | 16 | 10.4 | 5.23 | 2.3
x1 = 0.74 | 55.2 | – | 33.6 | 26.2 | – | – | –
x1 = 0.83 | 77 | – | 51.9 | 42.4 | 32.6 | 23.6 | 15.9
x1 = 0.94 | 105 | – | – | 61.9 | 49.3 | 37.5 | –
x1 = 1 | 125 | 105 | 88 | 72 | 57.7 | 44 | 31.6

Reference: a compilation of properties of binary mixtures (doi:10.1007/s10953-020-00967-3)
